One assay concerns the target MAPK14 (murine). Briefly: Inhibition of MAPK14 Kinase Activity.
Another assay concerns the target MAPK14 (human) (UniProt Q16539). Briefly: Inhibition of LPS Induced TNF-alpha Release in Human PBMC.

MAPK14 (human), sequence (Q16539 whole entry, looked up): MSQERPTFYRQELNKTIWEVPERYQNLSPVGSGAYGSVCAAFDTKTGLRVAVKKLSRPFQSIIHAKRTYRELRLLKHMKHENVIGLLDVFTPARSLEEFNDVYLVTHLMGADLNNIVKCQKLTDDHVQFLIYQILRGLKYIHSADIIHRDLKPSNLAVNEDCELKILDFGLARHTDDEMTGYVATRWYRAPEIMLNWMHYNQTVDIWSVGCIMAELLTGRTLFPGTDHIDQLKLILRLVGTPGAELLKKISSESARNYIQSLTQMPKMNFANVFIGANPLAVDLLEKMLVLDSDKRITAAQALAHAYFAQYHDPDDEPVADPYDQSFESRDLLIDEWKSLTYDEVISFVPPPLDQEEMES

With `C[C@@H](Nc1nccc(-n2c(-c3ccc(F)cc3)nc3nc(N4CCN(C)CC4)ccc32)n1)c1ccccc1`, the figures for the half-inhibitory concentration (IC50) on MAPK14 (murine) and against MAPK14 (human) were 6 nM and 1 nM, respectively.
For `Fc1ccc(-c2nc(C3CCNCC3)oc2-c2ccnc(NC3CCCCC3)n2)cc1` the same measures were 11 nM and 9 nM.
For `Fc1ccc(-c2nc(C3CCNCC3)oc2-c2ccnc(NC3CCCCC3)c2)cc1` the same measures were 15 nM and 0.2 nM.
`CN1CCC(O)(c2nc(-c3ccc(F)cc3)c(-c3ccncc3)[nH]2)CC1` showed an IC50 at MAPK14 (murine) of 90 nM. In other words, the double-digit nanomolar range.
In the case of `CN1CCC(O)(c2nc(-c3ccc(F)cc3)c(-c3ccncc3)o2)CC1`, the IC50 against MAPK14 (murine) amounted to 350 nM. Against the preceding compound, the IC50 is about 3.9-fold higher.
Still for that read-out and setting: to `C[C@H](Nc1cc(-c2sc(C3CCNCC3)nc2-c2ccc(F)cc2)ccn1)c1ccccc1` belongs 4 nM; to `CN1CCC(O)(c2nc(-c3ccc(F)cc3)c(-c3ccncc3)s2)CC1`, 450 nM.

The term IC50 denotes the concentration that gives 50% inhibition. A higher IC50 goes with a need for much substance.

The record behind these values is the Kinase Knowledgebase extract (Sharma et al. 2016).
